Data on 2 molecules can be found in publication PMC10318456, “Selective inhibitors of the PSEN1–gamma-secretase complex” (The Journal of Biological Chemistry, 2023).

Common to all, as to type: cell-based
Assay [1] addresses T1, PSEN1-APH1A γ-secretase complex (Homo sapiens, UniProt P49768).
T1 construct: expressed in transfected cells; host or cells: Psen1/2 double KO/Aph1ABC triple KO MEFs, pMSCV retroviral PSEN-IRES-APH1
As to the kind of experiment: Aβ40 secretion by MEF cell line expressing only PSEN1-APH1A γ-secretase (APP-C99-GFP reporter). The following applies: 8 h, Beerse site unless otherwise indicated, read-out: IC50, Aβ40 peptides. The source says: (§1) Mouse embryonic fibroblast (MEF) cells deficient for the Psen and Aph1 genes (Psen1/2^−/−, Aph1ABC^−/−) were reconstituted with human PSEN1 or PSEN2 and with human APH1A or APH1B to generate four independent cell lines, each constitutively expressing exclusively one type of γ-secretase complex (Fig. S1A) ([19]). A human APP-C99-GFP reporter was introduced to enable the measurement of Aβ peptides in the conditioned media of the cells to monitor γ-secretase activity. The assay was established in a 96-well format.
(§2) Conditional Psen1/2 double KO mice were crossed with conditional Aph1ABC triple KO mice ([29], [52], [58], [59]). At embryonic day 7.5, embryos were dissected and dissociated, and cells were plated in the presence of Dulbecco’s modified Eagle’s medium (DMEM)/F12 50% fetal calf serum (FCS) (Invitrogen). Primary MEFs were immortalized by transduction with LargeT antigen. Psen1/2 double KO/Aph1ABC triple KO MEFs were generated by transduction with a Cre-GFP–expressing adenoviral vector, and GFP-positive MEFs were sorted by fluorescence-activated cell sorting analysis. Psen1/2 Aph1ABC-deficient MEFs were maintained in DMEM/f12 10% FCS. To rescue γ-secretase expression, Psen1/2 double KO/Aph1ABC triple KO MEFs were transduced using Murine Stem Cell Virus retroviral vector system (pMSCV) viral vectors (Clontech) containing the human coding sequences of the different PSEN and APH1 homologs and the zeocin selection marker. An Internal Ribosome Entry Site sequence was cloned between the coding sequences for PSEN and APH1 to ensure co-expression of both proteins. Stable transfected cell lines were selected using 500-μg/ml zeocin (Invitrogen). Four different combinations were made: PSEN1 and APH1AL, PSEN1 and APH1B, PSEN2 and APH1AL, and PSEN2 and APH1B. These cell lines were transduced with pMSCV viral vectors (Clontech) expressing APP-C99-GFP-puromycin. After puromycin selection (5 μg/ml), GFP-positive cells were selected through FACS sorting. For the alanine mutagenesis experiment, pMSCV PSEN1-APH1A viral vectors were generated by using a long PCR-based QuikChange strategy (Stratagene). Stable cell lines without clonal selection were generated for each mutant as described above. All cell lines were regularly tested for the absence of mycoplasma and used for maximum 20 passages in culture.
(§3) The number of plated cells and incubation times were determined in respect to linearity of Aβ peptide secretion, the dynamic range of Aβ peptide quantification in the medium, and sensitivity to dimethylsulfoxide (DMSO). […] The cell viability was assessed using the CellTiter-Glo Luminescent assay (Promega) that measures ATP production. […]

Assay [2] concerns the target T2, PSEN2-APH1A γ-secretase complex (Homo sapiens, UniProt P49810+Q92542+Q96BI3+Q9NZ42).
T2 construct: expressed in transfected cells; host or cells: Psen1/2 double KO/Aph1ABC triple KO MEFs, pMSCV retroviral PSEN-IRES-APH1
As to the kind of experiment: Aβ40 secretion by MEF cell line expressing only PSEN2-APH1A γ-secretase (APP-C99-GFP reporter). The following applies: 8 h, Beerse site unless otherwise indicated, read-out: IC50, Aβ40 peptides.
Text: as §1
as §2, with “Four different combinations were made: PSEN1 and APH1AL, PSEN1 and APH1B, PSEN2 and APH1AL, and PSEN2 and APH1B. These cell lines were transduced with pMSCV viral vectors (Clontech) expressing APP-C99-GFP-puromycin. After puromycin selection (5 μg/ml), GFP-positive cells were selected through FACS sorting. For the alanine mutagenesis experiment, pMSCV PSEN1-APH1A viral vectors were generated by using a long PCR-based QuikChange strategy (Stratagene). Stable cell lines without clonal selection were generated for each mutant as described above. All cell lines were regularly tested for the absence of mycoplasma and used for maximum 20 passages in culture.” left out
as §3

Assay [3] deals with T3, PSEN1 W165A–APH1A γ-secretase complex (Homo sapiens, UniProt P49768+Q92542+Q96BI3+Q9NZ42, W165A).
T3 construct: expressed in transfected cells; host or cells: Psen1/2 double KO/Aph1ABC triple KO MEFs, pools without clonal selection
The assay can be described thus: Aβ40 secretion, MEF cell pool restored with PSEN1 W165A–APH1A. The following applies: PSEN1 W165A (TM3)–APH1A cell pool; N = 3 to 4; mean (95% CI); decimal comma. As for the experimental part:
(§4) We turned to experimental site–directed mutagenesis and selected a series of amino acids (Fig. 3) in the entrance channel for mutation to alanine. […] More importantly, they were all enzymatically active as shown by the secretion of Aβ40 in the supernatants of the cell cultures (Fig. 3B).
as §2, with “After puromycin selection (5 μg/ml), GFP-positive cells were selected through FACS sorting. For the alanine mutagenesis experiment, pMSCV PSEN1-APH1A viral vectors were generated by using a long PCR-based QuikChange strategy (Stratagene). Stable cell lines without clonal selection were generated for each mutant as described above. All cell lines were regularly tested for the absence of mycoplasma and used for maximum 20 passages in culture.” left out
(§5) The number of plated cells and incubation times were determined in respect to linearity of Aβ peptide secretion, the dynamic range of Aβ peptide quantification in the medium, and sensitivity to dimethylsulfoxide (DMSO). […] The cell viability was assessed using the CellTiter-Glo Luminescent assay (Promega) that measures ATP production. […] We however measured five compounds at the Leuven site and noticed that absolute IC50 values were different (Fig. S2). […]

For assay [4], the target named is T4, PSEN1 I168A–APH1A γ-secretase complex (Homo sapiens, UniProt P49768, I168A).
T4 construct: expressed in transfected cells; host or cells: Psen1/2 double KO/Aph1ABC triple KO MEFs, pools without clonal selection
The assay can be described thus: Aβ40 secretion, MEF cell pool restored with PSEN1 I168A–APH1A. The following applies: decimal comma; for IC50: PSEN1 I168A (TM3)–APH1A cell pool, N = 3 to 4, mean (95% CI). As for the experimental part:
as §4
as §2, with “After puromycin selection (5 μg/ml), GFP-positive cells were selected through FACS sorting. For the alanine mutagenesis experiment, pMSCV PSEN1-APH1A viral vectors were generated by using a long PCR-based QuikChange strategy (Stratagene). Stable cell lines without clonal selection were generated for each mutant as described above. All cell lines were regularly tested for the absence of mycoplasma and used for maximum 20 passages in culture.” left out
as §5

The target of assay [5] is T5, PSEN1 W165A–APH1A γ-secretase complex (Homo sapiens, UniProt P49768, W165A).
T5 construct: expressed in transfected cells; host or cells: Psen1/2 double KO/Aph1ABC triple KO MEFs, pools without clonal selection
As to the kind of experiment: Aβ40 secretion, MEF cell pool restored with PSEN1 W165A–APH1A. The following applies: decimal comma. As for the experimental part: as §4
as §2, with “After puromycin selection (5 μg/ml), GFP-positive cells were selected through FACS sorting. For the alanine mutagenesis experiment, pMSCV PSEN1-APH1A viral vectors were generated by using a long PCR-based QuikChange strategy (Stratagene). Stable cell lines without clonal selection were generated for each mutant as described above. All cell lines were regularly tested for the absence of mycoplasma and used for maximum 20 passages in culture.” left out
as §5

Molecules are shown by their SMILES.

For the molecule `O=S(=O)(c1ccc(Cl)cc1)N1[C@H]2CC[C@@H]([C@H]1c1ccc(C(F)(F)F)cc1)[C@@H](O)C2` [(+)-9b], the IC50 came to 22 nM in assay [1], 1670 nM in assay [2], 0.102 µM in assay [3] and 0.015 µM in assay [4]. Moreover, the “IC50 fold change to WT” value in assay [4] (PSEN1 I168A–APH1A cell pool) is 0,511 fold.

In the case of `C[C@H](NC(=O)Cc1cc(F)cc(F)c1)C(=O)N[C@H](C(=O)OC(C)(C)C)c1ccccc1` [DAPT], the IC50 was 0.304 µM in assay [5] (PSEN1 W165A (TM3)–APH1A cell pool, N = 3 to 4, mean (95% CI)) and 0.043 µM in assay [4]. The “IC50 fold change to WT” value in assay [5] (PSEN1 W165A–APH1A cell pool) was 1,802 fold.
